EP3354264A1, “PROPHYLAXIS AND TREATMENT OF NEISSERIA GONORRHOEAE EYE INFECTION” (Kingston University Higher Education Corporation, priority 2017, dated 2018)
In brackets after ≈: the same amount, converted by molar mass. Like-named read-outs stand apart in the source and are kept apart here.

Columns and labels:
[1] = test system: Neisseria gonorrhoeae strain NCCP11945; assay: Measurement of bactericidal action (log reduction); format: cell-based; settings: strain NCCP11945, 1 mM, 2 minutes
Experimental: (§1) The well characterised N. gonorrhoeae strain NCCP11945 (Chung GT et al. (2008) Complete genome sequence of Neisseria gonorrhoeae NCCP11945. Journal of Bacteriology 190: 6035-6036) was used in the screening stage of this experiment. Eight isolates that were obtained from Public Health England from various European locations were used in the log reduction assays. All isolates were first cultured for 24 hours prior to testing by plating on GC solid medium (Oxoid Limited, Hampshire, UK) with Kellogg supplements and incubating at 37 °C, 5% CO2 (Kellogg DS, Jr., et al., (1963), J Bacteriol 85: 1274-1279).
(§2) A full list of all the organic acids tested in this study is in Table 1. The tested compounds include saturated and unsaturated fatty acids, monoglycerides, dicarboxylic acids, and fatty acid sodium salts. All compounds investigated were resuspended at a concentration of 100 mM in ethanol unless stated. All chemicals were obtained from Sigma-Aldrich (Poole, Dorset, UK).
(§3) Log reductions were done using the same method as in Bergsson et al., (1999), Antimicrob Agents Chemother 43: 2790-2792. Briefly, cells were suspended in GC broth (18 g/L GC Base (Oxiod, Limited) with added defined supplements) to an optical density of 0.3 at 520 nm which is approximately equivalent to 107 - 108 cells per millilitre (Macfarlane DE et al. (1980) Improved media for the culture of Neisseria gonorrhoeae. J Med Microbiol 13: 597-607). Five hundred microliters of the suspension was then added to 5 µl of the 100 mM stocks to give a final concentration of 1 mM. A negative control was also done to calculate the reduction in bacterial titre by adding 500 µl to 5 µl ethanol. The tubes were then mixed at room temperature for two minutes and immediately diluted in a 10 fold dilution series down to 10-4. The dilutions were plated by spreading 10 µl on a quarter of a plate and 100 µl of the neat solution was also plated. Plates were incubated at 37 °C for 48 hours. All samples were plated in duplicate. A reduction in viable cell count by more than 4 log10 was deemed to be bactericidal and was selected for further investigation. Bactericidal compounds were then tested at concentrations of 0.75, 0.5, and 0.25 mM (0.125 mM was also used in some potent compounds) to find the minimum bactericidal concentration. Additional testing at lower concentrations was also done on the eight clinical isolates of European origin.

Streptococcus pneumoniae = settings: at the concentration used for the antigonococcal ocular formulation; cited from earlier work
Pseudomonas aeruginosa = settings: at the concentration used for the antigonococcal ocular formulation; cited from earlier work
[2] = test system: panel of nine N. gonorrhoeae isolates (strain NCCP11945 and eight isolates from Public Health England); assay: Minimum bactericidal concentration by log reduction, panel of isolates; format: cell-based; settings: Neisseria gonorrhoeae, 2 min; lowest concentration tested giving an average 4 log10 reduction after two minute exposure; nine isolates; read-out: Minimum bactericidal concentration
Experimental: as §1, §3
As shown by the results in Table 3 which presents data on the log reductions of bacterial cell counts, against a panel of nine N. gonorrhoeae isolates (strain NCCP11945 and eight isolates from Public Health England), myristoleic acid (C14:1cΔ9), palmitoleic acid (C16:1cΔ9), linolenic acid (C18:3cΔ9,12,15), and monocaprin (C10) have a minimal bactericidal concentration, defined as the lowest concentration tested to give an average 4 log10 reduction in bacterial count after a two minute exposure, of 0.5 mM. Against a panel of nine N. gonorrhoeae isolates, lauric acid (C12:0), tridecanoic acid (C13:0), and sodium dodecanoate have a minimal bactericidal concentration of 0.75 mM.

in vitro = format: cell-based, bovine; settings: red blood cells, bovine RBCs, shaken 1 hour at room temperature
Experimental: (§4) Whole bovine blood was obtained from a local slaughter house (ABP, Guildford, Surrey, UK), adding 90 ml blood to 10 ml of 110 mM tri-sodium citrate anticoagulant. RBCs were isolated the same day. The RBCs were washed by three repeats of centrifugation (1,500 x g for 10 minutes) and resuspension in PBSG. Testing was done following European Union Reference Laboratory for alternatives to animal testing (EURL-ECVAM) guidelines (Lewis RW (2010) DB-ALM Protocol No. 99: Red blood cell (RBC) Test System. EURL ECVAM). The organic acids were made up in DMSO and diluted to a DMSO concentration maximum of 10 % (v/v). Samples were shaken at room temperature for 1 hour and then centrifuged at 10,000 rpm for 2 minutes. An aliquot of 750 µl of the supernatant was taken and absorbance at […] tested.

RBCs = assay: in vitro; format: cell-based, bovine; settings: at their minimum bactericidal concentration
Experimental: as §4

Neisseria meningitidis = settings: at the concentration used for the antigonococcal ocular formulation; cited from earlier work
[3] = test system: Neisseria gonorrhoeae strain NCCP11945; assay: Log reduction in artificial tear fluid; format: cell-based; settings: artificial tear fluid containing calcium chloride; two minute exposure; Figure 8
Experimental: Artificial tear fluid was made as in Mirejovsky et al., Optometry and Vision Science, (1991), 68: 858-864. […] Neisseria gonorrhoeae strain NCCP11945 was used in these experiments. As the previous log reductions, […] were suspended in GC broth. The cell suspension was centrifuged to remove the culture medium and the bacteria resuspended in the tear fluid. This was then added to the concentrated organic acid candidates. The cells were then counted again after two minute exposure to estimate any reduction due to the exposure to the fatty acid.
In a first experiment, the artificial tear fluid formulation includes calcium chloride to mimic the calcium in natural tears. As shown by the results in Figure 8, the anti-gonococcal properties of myristoleic acid (C14:1cΔ9), palmitoleic acid (C16:1cΔ9), linolenic acid (C18:3cΔ9,12,15), and monocaprin(C10) are retained in the artificial tear fluid formulation containing calcium chloride.
In a second experiment, calcium chloride was omitted from the artificial tear fluid formulation. The results in Figure 9 indicate that the anti-gonococcal properties of lauric acid (C12:0), tridecanoic acid (C13:0), and sodium dodecanoate were retained in the artificial tear fluid formulation without.

[4] = test system: N. gonorrhoeae strain NCCP11945; assay: Cell culture infection model (primary cornea epithelial cells); format: cell-based; settings: 1 mM, added 90 minutes after infection; Figure 10
Experimental: Primary cornea epithelial cells were obtained from Life Technologies (Paisley, Glasgow, UK) and grown in Keratinocyte serum free medium (Life Technologies), at 37 °C with 5 % CO2 until 80 % confluent. The cells were then trypsin treated, washed, added to 24 welled plates and incubated for a further 24 hours. The medium was replaced and a fresh P+, Opa+ cells N. gonorrhoeae strain NCCP11945 suspension (approximately 10^7 CFU/ml) was added to the cells to get a multiplicity of infection of 10. All samples were done in duplicate. Monocaprin (1 mM, 0.5 mM, 0.25 mM, and 0.125 mM) was either added directly after the bacteria or after 90 minutes. […] The total time of the infection was three hours. The cells were washed five times with 1 ml PBS for each well. The wells were treated with warmed 1 % saponin in PBS and incubated for 10 minutes at 37 °C. After this, 900 µl GC broth was added and log reductions calculated as above. The CFUs of the drug exposed wells were compared to the CFU counts of the Infection controls to estimate the log reduction caused by the action of the monocaprin. Comparisons of the log reductions at different drug administration times at given concentrations was analysed in an unpaired t test using GraphPad Prism (version 6.01).

Staphylococcus aureus = settings: at the concentration used for the antigonococcal ocular formulation; cited from earlier work
[5] = test system: Neisseria gonorrhoeae strain NCCP11945; assay: Growth inhibition screen of organic acids; format: cell-based; settings: strain NCCP11945, in vitro, 1 mM
Experimental: as §1, §2
Other organic acids were also active at this concentration, as noted in Table 1.

## CCCCCCCCCC(=O)OCC(O)CO (centres unmarked) [Monocaprin C10, Monocaprin]
[1]; Neisseria gonorrhoeae, 2 min, read-out: Log reduction of Neisseria gonorrhoeae
  log reduction at 1000 µM: > 6
[1]
  Log reduction of Neisseria gonorrhoeae: able to cause a log reduction
Streptococcus pneumoniae
  bactericidal to Streptococcus pneumoniae: bactericidal
Pseudomonas aeruginosa
  bactericidal to Pseudomonas aeruginosa: bactericidal
[2]
  MBC: 500 µM (≈ 123 µg/mL)
In vitro; read-out: H50
  HC50 at 1 h: 1.6 to 2.4 mM
In vitro; read-out: H50 (mg/L)
  HC50 at 1 h: 400 to 600 mg/L
RBCs
  RBC lysis assay prediction of irritation: not irritating
Neisseria meningitidis
  bactericidal to Neisseria meningitidis: bactericidal
[3]
  anti-gonococcal properties in artificial tear fluid: retained
[4]
  kill of Neisseria gonorrhoeae that has infected human epithelial cells: able to kill
Staphylococcus aureus
  bactericidal to Staphylococcus aureus: bactericidal
[5]
  Inhibits growth of Neisseria gonorrhoeae: Yes
[5]; listed as monocaprin
  Inhibits growth of Neisseria gonorrhoeae: able to inhibit growth
